Assay results from patent US8637679B2, “Process for the isolation of organic compounds useful for the treatment of cancer” (Council of Scientific and Industrial Research, priority 2011, dated 2014).
Several values for one entry are separate records, joined by “and”; a condition that tells them apart may be missing. Equal entries are not always repeated. Entries after “also recorded” stand apart in the source; their conditions may differ. Where two headings read alike, the source gives them in different places. Blank lines part the entries; values can stand above or below the compound they belong to.

Assays:
Hsp90α = Hsp90α (Homo sapiens, UniProt P07900); assay: γ-ATP sepharose binding assay, Hsp90α; conditions: mahanine at 50 and 100 μM
Procedure: (§1) 5 μg of purified Hsp90α and Hsp90β were pre-incubated separately on ice with 200 μL incubation buffer (10 mM Tris-Hcl, 50 mM KCl, 5 mM MgCl2, 2 mM DTT, 20 mM Na2MoO4, 0.01% NP40, pH 7.5) containing mahanine or 17-AAG and incubated for 30 mins on ice. After the incubation, 25 μL pre-equilibrated γ-phosphate ATP sepharose added and again incubated at 37° C. with frequent agitation.
(§2) Sepharose subsequently washed and analyzed by SDS-PAGE. Then the blot was probed with anti Hsp90 antibody and developed by ECL.

Hsp90β = Hsp90β (Homo sapiens, UniProt P08238); assay: γ-ATP sepharose binding assay, Hsp90β; conditions: mahanine at 50 and 100 μM
Procedure: as §1, §2

HeLa [1] = assay: 7-AAD flow cytometric apoptosis, HeLa; type: cell-based, human
Procedure: (§5) U87MG, LN229, HeLa, SiHa and ME180 (1×10^6 cells) cells were cultured in 6-well plates in presence or absence of Mahanine (25 μM) for 24 hrs. Cells were washed in PBS, incubated with 7-Aminoactinomycin D (7-AAD) at 4° C. for 20 min and processed. Data acquisition was done on a FACSCalibur flow cytometer (BD) at excitation wavelength at 488 nm and emission wavelength at 647 nm and analyzed with CellQuestPro software.

K562 = assay: MTT cell viability assay, K562; type: cell-based, human; conditions: K562, 48 hrs
Procedure: (§3) Human cervical cancer cell lines (HeLa, ME-180 and SiHa), brain tumor cell lines (U87MG, U373MG, U87MG EGFRvIII, T98G, A172 and LN229), lymphoid leukemia (MOLT-3, MOLT-4, REH and CEMC-7), myloid leukemia (K562), pancreatic cancer (MIAPaCa-2, AsPC-1, Panc-1 and Panc 10.05), lung cancer (A549) and colon cancer (HCT116 and SW480) cell lines from American Type Culture Collection, Manassas, Va., USA were grown in IMDM or RPMI (cell specific) Medium supplemented with 10% fetal bovine serum and 1% antibiotic-antimycotic. Cells were cultured in 37° C. in an atmosphere of 5% CO2.
(§4) Viability of cancer cell lines after treatment as at the indicated times was determined by MTT assay. Briefly, 10,000 cells were plated in triplicate in 96 well plates and incubated for 24 and 48 hours in complete media in presence of varying dose of mahanine (0-50 μM). 100 ug MTT was added in each well. Incubate the plate for 1-4 hours at 37° C. and humidified 5% CO2 atmosphere. Absorbance was recorded at 550 nm with 96 well plate readers.

CEM C7 = assay: MTT cell viability assay, CEM C7; type: cell-based, human; conditions: CEM C7, 48 hrs
Procedure: as §3, §4

Panc1 = assay: MTT cell viability assay, Panc1; type: cell-based, human; conditions: Panc1, 48 hrs
Procedure: as §3, §4

cancer cell lines = assay: MTT assay, pooled cancer cell lines of several cancer types; type: cell-based, human; conditions: 48 hr
Procedure: as §3, §4

REH = assay: MTT cell viability assay, REH; type: cell-based, human; conditions: 48 hrs
Procedure: as §3, §4

Vero = assay: MTT cell viability assay, Vero normal cells; type: cell-based, African monkey; conditions: Vero normal cell line, 48 hrs
Molt-3 = assay: MTT cell viability assay, Molt-3; type: cell-based, human; conditions: Molt-3, 48 hrs
Procedure: as §3, §4

HCT116 = assay: MTT cell viability assay, HCT116; type: cell-based, human; conditions: HCT116, 48 hrs
Procedure: as §3, §4

Panc10.05 = assay: MTT cell viability assay, Panc10.05; type: cell-based, human; conditions: Panc10.05, 48 hrs
Procedure: as §3, §4

T98G = assay: MTT cell viability assay, T98G; type: cell-based, human; conditions: 48 hrs
Procedure: as §3, §4

A172 = assay: MTT cell viability assay, A172; type: cell-based, human; conditions: A172, 48 hrs
Procedure: as §3, §4

[2] = system: glioma cells (U87MG, U373MG, LN229, A172 and T98G); assay: MTT assay, panel of glioma cell lines; type: cell-based, human; conditions: range over U87MG, 48 hr, read-out: IC50 values against different glioma cell lines
Procedure: as §3, §4

AsPC1 = assay: MTT cell viability assay, AsPC1; type: cell-based, human; conditions: AsPC1, 48 hrs
Procedure: as §3, §4

A549 = assay: MTT cell viability assay, A549; type: cell-based, human; conditions: A549, 48 hrs
Procedure: as §3, §4

Molt-4 = assay: MTT cell viability assay, Molt-4; type: cell-based, human; conditions: Molt-4, 48 hrs
Procedure: as §3, §4

[3] = In vivo bioavailability after oral feeding; design: species or system Balb/c mice; conditions: mouse, in vivo, po
Procedure: EtOAc extract of Murraya koenigii was orally feeded to normal healthy Balb/c (100 mg/kg body weight) and blood was collected from retro orbital plexus after 30 min interval by glass capillary. Control blood was collected from the mice before the […] of extract. The Institutional Animal Ethical Committee had approved the study. Blood serum was isolated and the serum protein was separated by centrifugation in ice-cold acetone. Supernatant was evaporated to dryness and residual part was dissolved in minimum volume of MeOH and injected into the HPLC column.

SW480 = assay: MTT cell viability assay, SW480; type: cell-based, human; conditions: SW480, 48 hrs
Procedure: as §3, §4

U87MG = assay: MTT cell viability assay, U87MG; type: cell-based, human; conditions: 48 hrs
Procedure: as §3, §4

NCIH23 = assay: MTT cell viability assay, NCIH23; type: cell-based, human; conditions: NCIH23, 48 hrs
Procedure: as §4

MIAPaCa-2 = assay: MTT cell viability assay, MIAPaCa-2; type: cell-based, human; conditions: MIAPaCa-2, 48 hrs
Procedure: as §3, §4

U373MG = assay: MTT cell viability assay, U373MG; type: cell-based, human; conditions: 48 hrs
Procedure: as §3, §4

LN229 = assay: MTT cell viability assay, LN229; type: cell-based, human; conditions: LN229, 48 hrs
Procedure: as §3, §4

HeLa [4] = assay: MTT cell viability assay, HeLa; type: cell-based, human; conditions: 48 hrs
Procedure: as §3, §4

[5] = system: glioma (T98G) and cervical (HeLa) cancer cells; assay: Comparative cytotoxicity of mahanine and analogs by MTT; type: cell-based, human; conditions: MTT
Procedure: as §3, §4

ME180 = assay: 7-AAD flow cytometric apoptosis, ME180; type: cell-based, human; conditions: ME180, paclitaxel 10 μM alone
Procedure: as §5

Sequence of Hsp90β (P08238 whole entry): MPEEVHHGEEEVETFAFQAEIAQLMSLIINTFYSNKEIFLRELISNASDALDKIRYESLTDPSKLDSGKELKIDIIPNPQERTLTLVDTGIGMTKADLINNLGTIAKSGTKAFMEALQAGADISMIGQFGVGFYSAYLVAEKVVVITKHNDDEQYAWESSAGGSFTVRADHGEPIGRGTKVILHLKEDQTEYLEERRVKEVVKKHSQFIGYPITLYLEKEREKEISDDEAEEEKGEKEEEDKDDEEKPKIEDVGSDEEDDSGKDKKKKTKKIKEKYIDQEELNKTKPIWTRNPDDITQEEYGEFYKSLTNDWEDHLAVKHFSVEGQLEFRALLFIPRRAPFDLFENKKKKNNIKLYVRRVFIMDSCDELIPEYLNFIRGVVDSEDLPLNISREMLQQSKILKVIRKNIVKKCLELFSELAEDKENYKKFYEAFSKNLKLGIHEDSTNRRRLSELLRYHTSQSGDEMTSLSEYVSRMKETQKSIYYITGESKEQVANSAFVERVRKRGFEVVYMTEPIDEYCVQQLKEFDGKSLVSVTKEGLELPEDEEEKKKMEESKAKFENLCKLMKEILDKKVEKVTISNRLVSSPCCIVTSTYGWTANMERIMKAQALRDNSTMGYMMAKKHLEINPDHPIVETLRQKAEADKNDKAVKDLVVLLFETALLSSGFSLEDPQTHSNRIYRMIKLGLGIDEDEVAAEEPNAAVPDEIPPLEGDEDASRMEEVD

- effect on ATP binding to purified Hsp90 (Hsp90α): easily hindered the ATP binding
- effect on ATP binding to purified Hsp90 (Hsp90β): easily hindered the ATP binding
Compound: 17-allylamino, 17-demethoxygeldanamycin [17AAG, reference compound]

Compound: N.N.[Cl][Pt][Cl] [Cisplatin, cisplatin]
- apoptosis (7-AAD) (HeLa [1]; cisplatin 40 μM alone): ~7%

- IC50 (K562): 25.1 ± 0.1 µM
- IC50 (Panc1): 32.8 ± 0.1 µM
- IC50 (cancer cell lines; range over glioma and cervical cancer cell lines, read-out: IC50, glioma and cervical cancer cells): 10 to 20 µM
- IC50 (cancer cell lines; range over leukemia, glioma, cervical, pancreatic, colon and lung cancer lines, MTT, read-out: IC50, cell lines of different cancer types): 20 to 45 µM and 30 to 50 µM
- IC50 (Molt-3): 22.6 ± 0.6 µM
- IC50 (HCT116): 33.5 ± 0.3 µM
- IC50 (Panc10.05): 38.2 ± 0.1 µM
- IC50 [2]: 38 to 47 µM
- IC50 (AsPC1): 31.75 ± 0.2 µM
- IC50 (A549): 37 ± 0.1 µM
- IC50 (Molt-4): 28 ± 0.2 µM
- secondary metabolites in blood (mass spectroscopy) [3]: no production of secondary metabolites
- time to appearance in blood circulation after oral administration [3]: ≤ 30 min
- IC50 (SW480): 36.4 ± 0.5 µM
- IC50 (U87MG): 42.6 ± 0.4 µM
- IC50 (MIAPaCa-2): 35.2 ± 0.1 µM
- IC50 (HeLa [4]): 34.8 ± 0.1 µM
- IC50 (HeLa [4]; listed as Mahanimbin): 36 µM
Compound: CC(C)=CCCC1(C)C=Cc2c(c(C)cc3c2[nH]c2ccccc23)O1 (stereo not shown) [Mahanimbine, mahanimbine]
- IC50 (CEM C7): 27.4 ± 0.3 µM
- IC50 (REH): 24.3 ± 0.7 µM
- IC50 (Vero): > 100 µM
- IC50 (T98G): 43.6 ± 0.2 µM
- IC50 (A172): 38.4 ± 0.8 µM
- IC50 (NCIH23): 31.8 ± 0.2 µM
- IC50 (U373MG): 41.2 ± 0.25 µM
- IC50 (LN229): 46.3 ± 0.1 µM

Compound: CC(C)=CCCC1(C)C=Cc2c(c(C)cc3c4ccccc4n(C)c23)O1 (stereo not shown) [N-methylated mahanimbine]
- cytotoxicity (activity in words) [5]: inactive; also recorded: more or less inactive

Compound: COc1ccc2c(c1)[nH]c1c3c(c(C)cc12)OC(C)(CCC=C(C)C)C=C3 (stereo not shown) [O-methylated mahanine]
- cytotoxicity (activity in words) [5]: inactive; also recorded: more or less inactive

Compound: CC(=O)O[C@H]1C(=O)[C@@]2(C)[C@H]([C@H](OC(=O)c3ccccc3)[C@]3(O)C[C@H](OC(=O)[C@H](O)[C@@H](NC(=O)c4ccccc4)c4ccccc4)C(C)=C1C3(C)C)[C@]1(OC(C)=O)CO[C@@H]1C[C@@H]2O [Paclitaxel, paclitaxel, reference compound]
- apoptosis (7-AAD) (HeLa [1]; paclitaxel 10 μM alone): 16.19%
- apoptosis (7-AAD) (ME180): 18.21%

Compound: C20-C21 epoxy mahanine
- IC50 (REH): 18.4 ± 1.1 µM
